Patent US8609690B2, “Aryl- and heteroarylcarbonyl derivatives of substituted nortropanes, medicaments containing such compounds and their use” (Boehringer Ingelheim International GmbH, priority 2008, dated 2013)

Target: T1, 11β-HSD 1 (Homo sapiens, UniProt P28845)
T1 construct: detecting cortisol generated from cortisterone by human liver microsomes; from tissue; host or cells: human liver microsomes
Test: In vitro inhibition of 11β-HSD 1, HTRF detection of cortisol generated by human liver microsomes
Assay type: biochemical
Conditions: 1 μM test compound, 100% indicates no inhibition, zero or below zero indicates complete inhibition (relative to carbenoxolone)
In short: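 Human liver microsomes with test compound were incubated 1 h at 37 °C in Tris buffer, pH 6.0, with 200 μM NADPH and 80 nM cortisone. Cortisol formed was detected by competitive HTRF immunoassay (665/615 nm ratio) and calibrated against a cortisol standard curve. Values are activities at 1 μM compound relative to carbenoxolone, where 100% indicates no inhibition.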

T1 sequence (P28845 whole entry): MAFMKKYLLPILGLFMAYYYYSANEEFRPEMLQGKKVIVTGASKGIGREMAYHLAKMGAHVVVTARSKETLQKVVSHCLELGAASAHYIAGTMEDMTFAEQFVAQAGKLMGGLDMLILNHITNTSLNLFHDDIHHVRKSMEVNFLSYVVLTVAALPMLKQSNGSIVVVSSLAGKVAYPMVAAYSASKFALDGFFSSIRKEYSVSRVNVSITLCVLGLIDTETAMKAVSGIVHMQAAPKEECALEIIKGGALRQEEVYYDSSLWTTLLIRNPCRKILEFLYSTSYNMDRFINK

Row | SMILES | Inhibitory activity on 11β-HSD 1, % CTL (1 µM) | Inhibitory activity on 11β-HSD 1, % CTL
1 | O=C(c1ccccn1)N1[C@@H]2CC[C@H]1C[C@@H](c1ccc(F)cc1)C2 [Example 98, endo-[3-(4-Fluoro-phenyl)-8-aza-bicyclo[3.2.1]oct-8-yl]-pyridin-2-yl-methanone] | 74 % CTL | –
2 | Cc1cccc(C(=O)N2[C@@H]3CC[C@H]2C[C@@H](c2ccc(F)cc2)C3)c1 [Example 99, endo-[3-(4-Fluoro-phenyl)-8-aza-bicyclo[3.2.1]oct-8-yl]-m-tolyl-methanone] | – | −39 % CTL
3 | Cc1ccccc1C(=O)N1[C@@H]2CC[C@H]1C[C@@H](c1ccc(F)cc1)C2 [Example 100, endo-[3-(4-Fluoro-phenyl)-8-aza-bicyclo[3.2.1]oct-8-yl]-o-tolyl-methanone] | – | 61 % CTL
4 | Cc1ccc(C(=O)N2[C@@H]3CC[C@H]2C[C@@H](c2ccc(F)cc2)C3)cc1 [Example 101, endo-[3-(4-Fluoro-phenyl)-8-aza-bicyclo[3.2.1]oct-8-yl]-p-tolyl-methanone] | – | 4 % CTL
5 | O=C(c1ccc(O)nc1)N1[C@@H]2CC[C@H]1C[C@@H](c1ccc(F)cc1)C2 [Example 102, endo-[3-(4-Fluoro-phenyl)-8-aza-bicyclo[3.2.1]oct-8-yl]-(6-hydroxy-pyridin-3-yl)-methanone] | – | 47 % CTL
6 | O=C(c1ccc(F)cc1)N1[C@@H]2CC[C@H]1C[C@@H](c1ccc(F)cc1)C2 [Example 103, endo-(4-Fluoro-phenyl)-[3-(4-fluoro-phenyl)-8-aza-bicyclo[3.2.1]oct-8-yl]-methanone] | – | 32 % CTL
7 | O=C(c1cccc(F)c1)N1[C@@H]2CC[C@H]1C[C@@H](c1ccc(F)cc1)C2 [Example 104, endo-(3-Fluoro-phenyl)-[3-(4-fluoro-phenyl)-8-aza-bicyclo[3.2.1]oct-8-yl]-methanone] | – | 43 % CTL
8 | N#Cc1ccc(C(=O)N2[C@@H]3CC[C@H]2C[C@@H](c2ccc(F)cc2)C3)cc1 [Example 105, endo-4-[3-(4-Fluoro-phenyl)-8-aza-bicyclo[3.2.1]octane-8-carbonyl]-benzonitrile] | – | 58 % CTL
9 | N#Cc1cccc(C(=O)N2[C@@H]3CC[C@H]2C[C@@H](c2ccc(F)cc2)C3)c1 [Example 106, endo-3-[3-(4-Fluoro-phenyl)-8-aza-bicyclo[3.2.1]octane-8-carbonyl]-benzonitrile] | – | 75 % CTL
10 | Cc1ccc(C(=O)N2[C@@H]3CC[C@H]2C[C@@H](c2ccc(F)cc2)C3)cc1C [Example 107, endo-(3,4-Dimethyl-phenyl)-[3-(4-fluoro-phenyl)-8-aza-bicyclo[3.2.1]oct-8-yl]-methanone] | – | −38 % CTL
11 | COc1ccc(C(=O)N2[C@@H]3CC[C@H]2C[C@@H](c2ccc(F)cc2)C3)cc1 [Example 108, endo-[3-(4-Fluoro-phenyl)-8-aza-bicyclo[3.2.1]oct-8-yl]-(4-methoxy-phenyl)-methanone] | – | 1 % CTL
12 | COc1cccc(C(=O)N2[C@@H]3CC[C@H]2C[C@@H](c2ccc(F)cc2)C3)c1 [Example 109, endo-[3-(4-Fluoro-phenyl)-8-aza-bicyclo[3.2.1]oct-8-yl]-(3-methoxy-phenyl)-methanone] | – | −33 % CTL
13 | COc1ccccc1C(=O)N1[C@@H]2CC[C@H]1C[C@@H](c1ccc(F)cc1)C2 [Example 110, endo-[3-(4-Fluoro-phenyl)-8-aza-bicyclo[3.2.1]oct-8-yl]-(2-methoxy-phenyl)-methanone] | – | 87 % CTL
14 | O=C(c1ccccc1Cl)N1[C@@H]2CC[C@H]1C[C@@H](c1ccc(F)cc1)C2 [Example 111, endo-(2-Chloro-phenyl)-[3-(4-fluoro-phenyl)-8-aza-bicyclo[3.2.1]oct-8-yl]-methanone] | – | 61 % CTL
15 | O=C(c1ccc(Cl)cc1)N1[C@@H]2CC[C@H]1C[C@@H](c1ccc(F)cc1)C2 [Example 112, endo-(4-Chloro-phenyl)-[3-(4-fluoro-phenyl)-8-aza-bicyclo[3.2.1]oct-8-yl]-methanone] | – | 40 % CTL
